Reference: patent publication US20040077881A1, “$G(d)1-pyrrolines used in pest control” (priority 2001, published 2004)
Where two headings read alike, the source gives them in different places. One block for each molecule: values may come before it.

Assays:
[1] = logP determination by HPLC (EEC directive 79/831 Annex V.A8, reversed-phase C 18); type: physicochemical; conditions: for chromatographic logP: reversed-phase HPLC column (C 18); for log P2: second HPLC peak of the mixture of diastereomers
Method: The stated logP values were determined in accordance with EEC directive 79/831 Annex V.A8 by HPLC (High Performance Liquid Chromatography) using a reversed-phase column (C 18). Temperature: 43° C. In the acidic range, the determination was carried out at pH 2.3 using the mobile phases 0.1% aqueous phosphoric acid and acetonitrile; linear gradient from 10% acetonitrile to 90% acetonitrile.

[2] = system: larvae of the mustard beetle (Phaedon cochleariae); experiment: Phaedon larvae test; type: in vivo; conditions: 168 h, cabbage leaves dipped, after 7 d, read-out: Kill rate in % after 7 d
Method: [table] To produce a suitable preparation of active compound, 1 part by weight of active compound is mixed with the stated amounts of solvent and emulsifier, and the concentrate is diluted with emulsifier-containing water to the desired concentration. Cabbage leaves (Brassica oleracea) are treated by being dipped into the preparation of active compound of the desired concentration and are populated with larvae of the mustard beetle (Phaedon cochleariae) whilst the leaves are still moist. After the desired period of time, the kill in % is […]. 100% means that all beetle larvae have been killed; 0% means that none of the beetle larvae have been killed.

[3] = system: greenhouse red spider mite (Tetranychus urticae); experiment: Tetranychus test (OP-resistant/dip treatment); type: in vivo; conditions: 100 ppm, bean plants dipped, OP-resistant
Method: [table] To produce a suitable preparation of active compound, 1 part by weight of active compound is mixed with the stated amounts of solvent and emulsifier, and the concentrate is diluted with emulsifier-containing water to the desired concentration. Bean plants (Phaseolus vulgaris) which are heavily infested by all stages of the greenhouse red spider mite (Tetranychus urticae) are dipped into a preparation of active compound of the desired concentration. After the desired period of time, the effect in % is determined. 100% means that all spider mites have been killed; 0% means that none of the spider mites have been killed.

[4] = pH 2.3, first HPLC peak of the mixture of diastereomers, reversed-phase C 18, 43° C., pH 2.3, read-out: log P1
[5] = reversed-phase C 18, 43° C., pH 2.3
[6] = pH 2.3, HPLC, reversed-phase column (C 18), 43° C., pH 2.3, 0.1% aqueous phosphoric acid/acetonitrile, read-out: log P
[7] = pH 2.3, second HPLC peak of the mixture of diastereomers, reversed-phase C 18, 43° C., pH 2.3, read-out: log P2

Structure (SMILES): Fc1cccc(F)c1C1=NC(c2ccc(-c3ccc(OC(F)(F)F)cc3)cc2)CC1(Cl)Cl (centres unmarked) [drawing 56]
pest or weed control at 1000 ppm [2]: 100%

Structure (SMILES): Fc1cccc(F)c1C1=NC(c2ccc(-c3ccc(OC(F)(F)F)cc3)cc2)CC1Cl (centres unmarked) [drawing 57]
pest or weed control at 1000 ppm [2]: 100%

Structure (SMILES): Fc1cccc(F)c1C1=N[C@@H](c2ccc(-c3ccc(OC(F)(F)F)cc3)cc2)CC1(Cl)Cl [drawing 58]
pest or weed control at 1000 ppm [2]: 100%

Structure (SMILES): Fc1cccc(F)c1C1=N[C@@H](c2ccc(-c3ccc(OC(F)(F)F)cc3)cc2)CC1(Br)Br [drawing 59]
pest or weed control at 1000 ppm [2]: 100%

Structure (SMILES): Fc1cccc(F)c1C1=N[C@@H](c2ccc(-c3ccc(OC(F)(F)F)cc3)cc2)C/C1=C\c1ccc(Br)cc1 [drawing 60]
pest or weed control at 1000 ppm [2]: 100%

Structure (SMILES): O=S(=O)(Oc1ccc([C@H]2CC(Cl)C(c3c(F)cccc3F)=N2)cc1)C(F)(F)F (some centres unmarked) [drawing 61]
pest or weed control at 1000 ppm [2]: 100%

Structure (SMILES): O=S(=O)(Oc1ccc([C@H]2CC(Cl)(Cl)C(c3c(F)cccc3F)=N2)cc1)C(F)(F)F [drawing 62]
pest or weed control at 1000 ppm [2]: 100%

Structure (SMILES): O=S(=O)(Oc1ccc([C@H]2CC(Br)C(c3c(F)cccc3F)=N2)cc1)C(F)(F)F (some centres unmarked) [drawing 63]
pest or weed control at 1000 ppm [2]: 100%

Structure (SMILES): O=S(=O)(Oc1ccc(-c2ccc([C@H]3C[C@H](Cl)C(c4c(F)cccc4F)=N3)cc2)cc1)C(F)(F)F [drawing 64]
pest or weed control at 1000 ppm [2]: 100%

Structure (SMILES): Fc1cccc(F)c1C1=NC(c2ccc(-c3ccc(OC(F)(F)F)cc3)cc2)CC1(Cl)Cl (centres unmarked) [drawing 76]
Kill rate in % after 7 d [3]: 98%

Structure (SMILES): Fc1cccc(F)c1C1=NC(c2ccc(-c3ccc(OC(F)(F)F)cc3)cc2)CC1Cl (centres unmarked) [drawing 77]
Kill rate in % after 7 d [3]: 98%

Structure (SMILES): Fc1cccc(F)c1C1=N[C@@H](c2ccc(-c3ccc(OC(F)(F)F)cc3)cc2)CC1(Cl)Cl [drawing 78]
Kill rate in % after 7 d [3]: 98%

Structure (SMILES): Fc1cccc(F)c1C1=N[C@@H](c2ccc(-c3ccc(OC(F)(F)F)cc3)cc2)CC1(Br)Br [drawing 79]
Kill rate in % after 7 d [3]: 98%

Structure (SMILES): CC(C)(C)OC(=O)N1C(=O)C(C)(C)CC1c1ccc(-c2ccc(OC(F)(F)F)cc2)cc1 (centres unmarked) [tert-butyl 3,3-dimethyl-2-oxo-5-[4′-(trifluoromethoxy)-1,1′-biphenyl-4-yl]-1-pyrrolidinecarboxylate]
chromatographic logP ([1]; HPLC, reversed-phase column (C 18), 43° C., pH 2.3, 0.1% aqueous phosphoric acid/acetonitrile, read-out: log P): 4.99

The remaining lines, values ahead:

chromatographic logP [1, 4]: 5.31
log P2 [1, 5]: 5.39
Structure (SMILES): Fc1cccc(F)c1C1=NC(c2ccc(-c3ccc(OC(F)(F)F)cc3)cc2)CC1Cl (centres unmarked) [Example 1, 4-chloro-5-(2,6-difluorophenyl)-2-[4′-(trifluoromethoxy)-1,1′-biphenyl-4-yl]-3,4-dihydro-2H-pyrrole]

chromatographic logP [1, 4]: 5.31
log P2 [1, 5]: 5.39
Structure (SMILES): Fc1cccc(F)c1C1=N[C@@H](c2ccc(-c3ccc(OC(F)(F)F)cc3)cc2)CC1Cl (stereo partly drawn) [Example 2, (2R)-4-chloro-5-(2,6-difluorophenyl)-2-[4′-(trifluoromethoxy)-1,1′-biphenyl-4-yl]-3,4-dihydro-2H-pyrrole]

chromatographic logP [1, 4]: 4.34
log P2 [1, 5]: 4.40
Structure (SMILES): O=S(=O)(Oc1ccc([C@H]2CC(Cl)C(c3c(F)cccc3F)=N2)cc1)C(F)(F)F (stereo partly drawn) [Example 3, 4-[(2R)-4-chloro-5-(2,6-difluorophenyl)-3,4-dihydro-2H-pyrrol-2-yl]phenyl-trifluoromethanesulphonate]

chromatographic logP [1, 6]: 4.88
Structure (SMILES): O=S(=O)(Oc1ccc([C@H]2CC(Cl)(Cl)C(c3c(F)cccc3F)=N2)cc1)C(F)(F)F [Example 5]

chromatographic logP [1, 6]: 5.91
Structure (SMILES): Fc1cccc(F)c1C1=N[C@@H](c2ccc(-c3ccc(OC(F)(F)F)cc3)cc2)CC1(Cl)Cl [Example 6, (2R)-4,4-dichloro-5-(2,6-difluorophenyl)-2-[4′-(trifluoromethoxy)-1,1′-biphenyl-4-yl]-3,4-dihydro-2H-pyrrole]

chromatographic logP [1, 6]: 5.22
Structure (SMILES): O=S(=O)(Oc1ccc(-c2ccc([C@H]3C[C@H](Cl)C(c4c(F)cccc4F)=N3)cc2)cc1)C(F)(F)F [Example 7, 4′-[(2R)-4-chloro-5-(2,6-difluorophenyl)-3,4-dihydro-2-yl]-1,1′-biphenyl-4-yl trifluoromethanesulphonate]

chromatographic logP [1, 4]: 4.39
chromatographic logP [1, 7]: 4.49
Structure (SMILES): O=S(=O)(Oc1ccc([C@H]2CC(Br)C(c3c(F)cccc3F)=N2)cc1)C(F)(F)F (stereo partly drawn) [Example 8, 4-[(2R)-4-bromo-5-(2,6-difluorophenyl)-3,4-dihydro-2-pyrrol-2-yl]phenyl-trifluoromethanesulphonate]

chromatographic logP [1, 6]: 4.97
Structure (SMILES): O=S(=O)(Oc1ccc([C@H]2CC(Br)(Br)C(c3c(F)cccc3F)=N2)cc1)C(F)(F)F [Example 9, 4-[(2R)-4,4-dibromo-5-(2,6-difluorophenyl)-3,4-dihydro-2H-pyrrol-2-yl]phenyl-trifluoromethanesulphonate]

chromatographic logP [1, 6]: 6.01
Structure (SMILES): Fc1cccc(F)c1C1=N[C@@H](c2ccc(-c3ccc(OC(F)(F)F)cc3)cc2)CC1(Br)Br [Example 10, (2R)-4,4-dibromo-5-(2,6-difluorophenyl)-2-[4′-(trifluoromethoxy)-1,1′-biphenyl-4-yl]-3,4-dihydro-2H-pyrrole]

chromatographic logP [1, 6]: 5.67
Structure (SMILES): CC1(C)CC(c2ccc(-c3ccc(OC(F)(F)F)cc3)cc2)N=C1c1c(F)cccc1F (centres unmarked) [Example 11, 4,4-dimethyl-5-(2,6-difluorophenyl)-2-[4′-(trifluoromethoxy)-1,1′-biphenyl-4-yl]-3,4-dihydro-2H-pyrrole]

chromatographic logP [1, 4]: 1.4
chromatographic logP [1, 7]: 1.6
Structure (SMILES): O=S(=O)(O)C1CC(c2ccc(Br)cc2)N=C1c1c(F)cccc1F (centres unmarked) [Example 12, 2-(4-bromophenyl)-5-(2,6-difluorophenyl)-3,4-dihydro-2H-pyrrole-4-sulphonic acid]

log P1 ([1]; first HPLC peak of the mixture of diastereomers, reversed-phase C 18, 43° C., pH 2.3): 2.29
chromatographic logP [1, 4]: 2.32
chromatographic logP [1, 7]: 2.46
Structure (SMILES): O=S(=O)(O)C1CC(c2ccc(-c3ccc(OC(F)(F)F)cc3)cc2)N=C1c1c(F)cccc1F (centres unmarked) [Example 13, 5-(2,6-difluorophenyl)-2-[4′-(trifluoromethoxy)-1,1′-biphenyl-4-yl]-3,4-dihydro-2H-pyrrole-4-sulphonic acid]

chromatographic logP [1, 6]: 6.43
Structure (SMILES): Fc1cccc(F)c1C1=N[C@@H](c2ccc(-c3ccc(OC(F)(F)F)cc3)cc2)CC1=Cc1ccc(Br)cc1 [Example 14, (2R)-4-(4-bromobenzylidene)-5-(2,6-difluorophenyl)-2-[4′-(trifluoromethoxy)-1,1′-biphenyl-4-yl]-3,4-dihydro-2H-pyrrole]

chromatographic logP [1, 6]: 4.77
Structure (SMILES): CCOS(=O)(=O)C1CC(c2ccc(-c3ccc(OC(F)(F)F)cc3)cc2)N=C1c1c(F)cccc1F (centres unmarked) [Example 15, ethyl 5-(2,6-difluorophenyl)-2-[4′-(trifluoromethoxy)-1,1′-biphenyl-4-yl]-3,4-dihydro-2H-pyrrole-4-sulphonate]

chromatographic logP [1, 6]: 5.77
Structure (SMILES): Fc1cccc(F)c1C1=NC(c2ccc(-c3ccc(OC(F)(F)F)cc3)cc2)CC1=Cc1ccccc1 (centres unmarked) [Example 16, 4-benzylidene-5-(2,6-difluorophenyl)-2-[4′-(trifluoromethoxy)-1,1′-biphenyl-4-yl]-3,4-dihydro-2H-pyrrole]

chromatographic logP [1, 6]: 5.8
Structure (SMILES): CC(C)C=C1CC(c2ccc(-c3ccc(OC(F)(F)F)cc3)cc2)N=C1c1c(F)cccc1F (centres unmarked) [Example 17, 4-(2-methylpropylidene)-5-(2,6-difluorophenyl)-2-[4′-(trifluoromethoxy)-1,1′-biphenyl-4-yl]-3,4-dihydro-2H-pyrrole]

chromatographic logP [1, 6]: 6.45
Structure (SMILES): CC(C)(C)OC(=O)NC(CC(C)(C)C(=O)c1c(F)cccc1F)c1ccc(-c2ccc(OC(F)(F)F)cc2)cc1 (centres unmarked) [tert-butyl 4-(2,6-difluorophenyl)-3,3-dimethyl-4-oxo-1-[4′-(trifluoromethoxy)-1,1′-biphenyl-4-yl]butylcarbamate]
